Measured values published in patent US9668497B2, “Flavor-enhancing compounds” (INTERNATIONAL FLAVORS & FRAGRANCES INC., priority 2015, dated 2017).

Assays:
[1] = Sensory description of Formula I alone in water; format: in vivo; details: 20 ppm in water
[2] = Cooling enhancement in menthol (35 ppm), trained sensory panel; format: in vivo
Experimental: The flavor compositions of menthol (35 ppm) combined with 7,8-dihydroxy-2-phenyl-4H-chromen-4-one (Formula I) at different concentrations were evaluated by a trained sensory panel. Sensory results are reported in the following. […]

[3] = Cooling enhancement in WS-5 (30 ppm); format: in vivo
Experimental: (§1) The cooling enhancement of Formula I and Na-Formula I in cooling compounds including WS-5 (30 ppm), WS-23 (35 ppm), menthyl lactate (35 ppm), WS-3 (30 ppm) and Cooler 2 (10 ppm) was also evaluated.

[4] = Cooling enhancement in WS-23 (35 ppm); format: in vivo
Experimental: as §1

[5] = Cooling enhancement in menthyl lactate (35 ppm); format: in vivo
Experimental: as §1

[6] = Cooling enhancement in WS-3 (30 ppm); format: in vivo
Experimental: as §1

[7] = Cooling enhancement in Cooler 2 (10 ppm); format: in vivo
Experimental: as §1

[8] = Cooling enhancement in various cooling compounds (summary of Example VII); format: in vivo; details: WS-5, WS-23, menthyl lactate, WS-3, Cooler 2; table footnote
Experimental: as §1

[9] = Solubility in aqueous solutions; format: physicochemical

## O=c1cc(-c2ccccc2)oc2c(O)c(O)ccc12 [Formula I, 7,8-dihydroxy-2-phenyl-4H-chromen-4-one]
[1]
  Cooling property: no cooling property
[2]; menthol 35 ppm, table footnote
  Cooling enhancement, overall statement: Formula I enhanced the cooling sensation of menthol.
[2]; menthol 35 ppm, test substance 1 ppm
  Flavor Profile: cooling enhancement: Marginal cooling enhancement
[2]; menthol 35 ppm, test substance 2 ppm
  Flavor Profile: cooling enhancement: Marginal cooling enhancement
[2]; menthol 35 ppm, test substance 5 ppm
  Flavor Profile: cooling enhancement: Marginal cooling enhancement
[2]; menthol 35 ppm, test substance 10 ppm
  Flavor Profile: cooling enhancement: ~10% cooling enhancement
[2]; menthol 35 ppm, test substance 20 ppm
  Flavor Profile: cooling enhancement: ~20% cooling enhancement,
[2]; menthol 35 ppm, test substance 30 ppm
  Flavor Profile: cooling enhancement: ~20% cooling enhancement, slight
[2]; menthol 35 ppm, test substance 40 ppm
  Flavor Profile: cooling enhancement: Cooling enhancement, reduced
[2]; menthol 35 ppm, test substance 50 ppm
  Flavor Profile: cooling enhancement: Cooling enhancement, harsh
[2]; menthol 35 ppm, test substance 100 ppm
  Flavor Profile: cooling enhancement: Cooling enhancement, harsh
[3]; test substance 1 ppm
  Evaluation on the Cooling Enhancement: Marginal
[3]; test substance 2 ppm
  Evaluation on the Cooling Enhancement: Marginal
[3]; test substance 5 ppm
  Evaluation on the Cooling Enhancement: Marginal
[3]; test substance 10 ppm
  Evaluation on the Cooling Enhancement: ~15% enhancement
[3]; test substance 20 ppm
  Evaluation on the Cooling Enhancement: ~20% enhancement
[3]; test substance 30 ppm
  Evaluation on the Cooling Enhancement: ~20% enhancement,
[3]; test substance 40 ppm
  Evaluation on the Cooling Enhancement: Enhancement,
[3]; test substance 50 ppm
  Evaluation on the Cooling Enhancement: Enhancement,
[3]; test substance 100 ppm
  Evaluation on the Cooling Enhancement: Enhancement,
[4]; test substance 1 ppm
  Evaluation on the Cooling Enhancement: Marginal
[4]; test substance 2 ppm
  Evaluation on the Cooling Enhancement: Marginal
[4]; test substance 5 ppm
  Evaluation on the Cooling Enhancement: Marginal
[4]; test substance 10 ppm
  Evaluation on the Cooling Enhancement: ~10% enhancement
[4]; test substance 20 ppm
  Evaluation on the Cooling Enhancement: ~20% enhancement
[4]; test substance 30 ppm
  Evaluation on the Cooling Enhancement: ~20% enhancement,
[4]; test substance 40 ppm
  Evaluation on the Cooling Enhancement: Enhancement,
[4]; test substance 50 ppm
  Evaluation on the Cooling Enhancement: Enhancement,
[4]; test substance 100 ppm
  Evaluation on the Cooling Enhancement: Enhancement,
[5]; test substance 1 ppm
  Evaluation on the Cooling Enhancement: Marginal
[5]; test substance 2 ppm
  Evaluation on the Cooling Enhancement: Marginal
[5]; test substance 5 ppm
  Evaluation on the Cooling Enhancement: Marginal
[5]; test substance 10 ppm
  Evaluation on the Cooling Enhancement: ~10% enhancement
[5]; test substance 20 ppm
  Evaluation on the Cooling Enhancement: ~20% enhancement
[5]; test substance 30 ppm
  Evaluation on the Cooling Enhancement: ~20% enhancement,
[5]; test substance 40 ppm
  Evaluation on the Cooling Enhancement: Enhancement,
[5]; test substance 50 ppm
  Evaluation on the Cooling Enhancement: Enhancement,
[5]; test substance 100 ppm
  Evaluation on the Cooling Enhancement: Enhancement,
[6]; test substance 1 ppm
  Evaluation on the Cooling Enhancement: Marginal
[6]; test substance 2 ppm
  Evaluation on the Cooling Enhancement: Marginal
[6]; test substance 5 ppm
  Evaluation on the Cooling Enhancement: Marginal
[6]; test substance 10 ppm
  Evaluation on the Cooling Enhancement: ~15% enhancement
[6]; test substance 20 ppm
  Evaluation on the Cooling Enhancement: ~20% enhancement
[6]; test substance 30 ppm
  Evaluation on the Cooling Enhancement: ~20% enhancement,
[6]; test substance 40 ppm
  Evaluation on the Cooling Enhancement: Enhancement,
[6]; test substance 50 ppm
  Evaluation on the Cooling Enhancement: Enhancement,
[6]; test substance 100 ppm
  Evaluation on the Cooling Enhancement: Enhancement,
[7]; test substance 1 ppm
  Evaluation on the Cooling Enhancement: Marginal
[7]; test substance 2 ppm
  Evaluation on the Cooling Enhancement: Marginal
[7]; test substance 5 ppm
  Evaluation on the Cooling Enhancement: Marginal
[7]; test substance 10 ppm
  Evaluation on the Cooling Enhancement: ~10% enhancement
[7]; test substance 20 ppm
  Evaluation on the Cooling Enhancement: ~10% enhancement
[7]; test substance 30 ppm
  Evaluation on the Cooling Enhancement: ~20% enhancement,
[7]; test substance 40 ppm
  Evaluation on the Cooling Enhancement: Enhancement,
[7]; test substance 50 ppm
  Evaluation on the Cooling Enhancement: Enhancement,
[7]; test substance 100 ppm
  Evaluation on the Cooling Enhancement: Enhancement,
[8]
  Cooling enhancement, overall statement: Formula I and Na-Formula I enhanced the cooling sensation of various cooling compounds.
[9]
  Solubility in aqueous solutions: sparingly soluble

## CC1CCC(C(C)C)C(O)C1 (centres unmarked) [Menthol, menthol, reference compound]
[2]; menthol 35 ppm alone, 0 ppm enhancer
  Flavor Profile: Cooling sensation
